Experimental data reported in patent US8962646B2, “Peripherally acting opioid compounds” (Alkermes, Inc., priority 2011, dated 2015).
pKi: −log10 of the molar value. “Also recorded” adds a separate entry of the source. Where a name gives a salt, the structure may show the parent alone. Read-outs that look alike come from different tables or passages of the source.

Assays:
formalin-induced events = experiment: Formalin model of pain; assay type: in vivo; conditions: rats; for ED50: Rattus norvegicus, sc, read-out: Formalin test ED50
Procedure: Nonfasted male Harlan rats were assigned to treatment group according to a randomized block study design to balance for test chamber and time of day, and day of test (if applicable). Each rat was administered either vehicle or test compound subcutaneously and then placed in their assigned test chamber and acclimated for 25-30 minutes with the chamber enclosure door left open. Data was not collected during this period. Following the acclimation period, each rat was removed individually starting with chamber 1, and dosed 5% formalin subcutaneously into the right rear paw plantar surface (formalin was made from a 37% stock solution, diluted down to 5% with saline).
Data collection started when the first rat was replaced in chamber 1 and the chamber door was closed and latched (skipped 1-minute acclimation screen on software). The number of events (also defined as “number of seconds”), defined as the number of 1-second bins with a change in dynamic force that exceeded an empirically determined threshold value (a value of arbitrary load units, which corresponded visually with rats quietly breathing or sniffing), were totaled in 5-minute intervals. In control rats, the number of events first increases within 5 minutes and then decreases during the subsequent 5 minutes (a quiescent phase) after formalin administration (Phase I, or Early Phase, of the formalin test), then increases again during the subsequent 35 minutes (Phase II, or Late Phase) of the formalin test. Formalin-induced movements detected by the system include licking and flinching of the affected paw as well as hopping and turning.
For constructing summaries for analysis of dose response curves or screens in the formalin test, the total number of events during the first 5 minutes after formalin administration was considered to be Phase I (Early Phase), and the total number of events for minutes 11 to 35 after formalin was considered to be Phase II (Late Phase). Data were analyzed using 1-way ANOVA, and comparisons of drug treatment groups were compared with control groups using appropriate, statistician-guided tests—most commonly Dunnett's for dose response curves and a Student's t-test for two-group (i.e. vehicle vs. positive control) comparison—utilizing JMP statistical software (SAS Institute Inc, Cary, N.C.). Data was expressed as means±SEM. An ED50 was calculated utilizing GraphPad Prism software.

[1] = system: CFA-induced weight bearing deficits; experiment: CFA induced weight bearing deficits in rats; conditions: for Analgesic effect with concurrent intra-plantar 75 ug naloxone methiodide: 10 μg/paw intra-plantar; for Reversal of CFA-induced weight bearing deficits: intra-plantar, 3, 10 and 30 μg/paw
Procedure: Animals were habituated to the weight bearing test apparatus for 2 days prior to the start of the experiment. On Day 0, rats were tested in the weight bearing apparatus to measure baseline weight bearing of untreated hind paws. Following baseline testing, animals were injected intra-plantar with Complete Freund's Adjuvant (CFA). Using a syringe with a locking hub and 25 G needle, rats were injected via rear, left intra-plantar administration with 100 μL of 100% CFA (1.0 mg/ml) while under light isofluorane anesthesia. No treatment was administered to the right, rear, contralateral paw.
Intra-plantar test-compound administration was done while the animal was under light (3%) isofluorane anesthesia using 0.3 ml insulin syringe. The amount of anesthesia given to the animal during test compound administration was limited to a very short duration, so not to impede measurement of weight bearing at the 5 minute time point. On Day 1 (24 hrs post CFA), rats were tested in the weight bearing apparatus to measure CFA-induced changes in weight bearing. […] Following test compound administration, animals were retested in the weight bearing apparatus at the following time points: 5, 15, 30, 60 and 120 minutes post-test compound administration. Animals were retested on Day 2 (post-CFA) if there is a significant change in CFA induced weight bearing at the 120 minute time point on Day 1.

[2] = system: hot plate response latency; experiment: Rat hot plate model of centrally mediated analgesia
Procedure: Rats were then tested on the hot plate 5, 30, 60, 120, 240 and 360 minutes later. The amount of time it took to lick one hind paw is measured and is considered the response latency. The mean and SEM of the responses latencies for each experimental group were calculated and a line depicting mean hot plate latency vs. time was generated using GraphPad Prism. An increase in mean response latency above baseline following test compound administration is indicative of an antinociceptive effect.

mice = experiment: In vivo behavioral studies (clinical observation assay); conditions: 10 mg/kg SC, observed over 24 hours
Procedure: Groups of mice (n=5 per group; >60 days; 20-25 grams weight) were dosed with vehicle (0.9% sterile saline) or test compounds (10 mg/kg free base, SC) 30 minutes before the first observation period. The occurrence of Straub tail, piloerection, hyperlocomotion, hypolocomotion, circling of the cage, sedation, breathing abnormalities, diuresis, seizure activity and occurrences of death were recorded at 0.5, 1, 2, 4, 6 and 24 hours following dosing.
This is tested with our clinical observation assay where mice are injected with 10 mg/kg subcutaneously with drug and the behaviors are noted over 24 hours.

human μ opioid receptor [3] = biological target: T1, human μ opioid receptor (Homo sapiens (Human), UniProt P35372); conditions: read-out: Binding affinity μ (Ki, nm)
human κ opioid receptor = human κ opioid receptor (Homo sapiens (Human), UniProt P41145); conditions: read-out: Binding affinity κ (Ki, nm)
human δ opioid receptor = human δ opioid receptor (Homo sapiens (Human), UniProt P41143); experiment: Receptor binding, competitive displacement of [3H]naltrindole; conditions: CHO cell membranes, cloned human receptor, 0.2 nM [3H]naltrindole; for pKi: read-out: Binding affinity δ (Ki, nm); for Ki: uM, read-out: Binding affinity δ (Ki)
human μ opioid receptor [4] = biological target: T1, human μ opioid receptor; assay type: biochemical
Procedure: The [^35S]GTPγS assay measures the functional properties of a compound by quantifying the level of G-protein activation following agonist binding in studies using stably transfected cells, and is considered to be a measure of the efficacy of a compound. Membranes from CHO (Chinese Hamster Ovary) cells that stably expressed the cloned human Mu opioid receptor were used in the experiments. In a final volume of 0.5 mL, 12 different concentrations of each test compound were incubated with 7.5 μg of CHO cell membranes that stably expressed the human μ opioid receptor. The assay buffer consisted of 50 mM Tris-HCl, pH 7.4, 3 mM MgCl2, 0.2 mM EGTA, 3 μM GDP, and 100 mM NaCl. The final concentration of [^35S]GTPγS was 0.080 nM. Nonspecific binding was measured by inclusion of 10 μM GTPγS. Binding was initiated by the addition of the membranes. After an incubation of 60 min at 30° C., the samples were filtered through Schleicher & Schuell No. 32 glass fiber filters. The filters were washed three times with cold 50 mM Tris-HCl, pH 7.5, and were counted in 2 mL of Ecoscint scintillation fluid.

[5] = system: acetic acid induced writhing; experiment: Acetic-acid induced writhing model of inflammatory pain; assay type: in vivo; conditions: mice, intraperitoneal, 1% acetic acid
Procedure: The number of writhes was counted for 15 minutes (3 consecutive 5 minute time bins). […] “Normal” posture was defined as movements opposite to those listed above (e.g. convex curvature of the spine, legs not extended, abdomen not lowered, tail in a straight or relaxed position, etc).
The total number of writhes over the 15 minute test session was used for all data analysis. All data was transformed using GraphPad Prism to % change from daily vehicle control for analysis based on the number of writhes produced by the saline vehicle control group (% change=# writhes in test group/mean # of writhes in daily vehicle control group*100).

[6] = CHO cell membranes, cloned human receptor, 1 nM [3H]U69,593
[7] = [35S]GTPγS binding, CHO membranes
[8] = CHO cell membranes, cloned human receptor, […] [3H]DAMGO

CN1CC[C@]23c4c5ccc(O)c4O[C@H]2[C@@H](O)C=CC3C1C5 (stereo partly shown) [A, morphine, reference compound] was tested, and the ED50 (formalin-induced events; subcutaneous) was 2.4 mg/kg, the “Effect on early and late phase of formalin test” value (formalin-induced events; 10 mg/kg) was “completely mitigates both the early and late phase effects of formalin” and the “Analgesic effect with concurrent intra-plantar 75 ug naloxone methiodide” value [1] was “significantly inhibited”. The “Reversal of CFA-induced weight bearing deficits” value [1] was “dose-dependent reversal of CFA-induced weight bearing deficits”, the “Hot plate antinociception (response latency)” value ([2]; SC 7.5 mg/kg, hot plate 52.5° C.) was 60 s and the “Clinical Observations after 10 mg/kg subcutaneous injection” value (“Clinical Observations” for short) (mice) was “Multiple central nervous system like effects: Straub tail, hyperlocomotion, circling”. For the same molecule, the “Clinical Observations” value (mice; listed as morphine) was “severe effects that reflect mu agonism in the brain”.

Molecule CN1CC[C@]23CC(=O)CC[C@@]2(O)[C@H]1Cc1ccc(C(=O)NCCc2ccc(-c4ccccc4)cc2)c(O)c13.Cl [B, reference compound] has a pKi (human μ opioid receptor [3]) of 9.41, a pKi (human κ opioid receptor; [6]) of 9.15 and a pKi (human δ opioid receptor) of 8.27. The “In vitro functional agonism for μ receptor Agonist?” value (from here on “In vitro functional agonism”) (human μ opioid receptor [4]) was “Yes”, the “Clinical Observations” value (mice) was “Angioedema; Straub tail, hypolocomotion, mortality” and the “Clinical Observations” value (mice; listed as Compound-B) was “severe effects that reflect mu agonism in the brain; also recorded: observed mortality”.

CN1CC[C@]23CC(=O)CC[C@@]2(O)[C@H]1Cc1ccc(C(=O)NCCc2nc4ccccc4[nH]2)c(O)c13 [Compound 1] gave a pKi (human μ opioid receptor [3]) of 7.57, a pKi (human κ opioid receptor; [6]) of 6.07 and a pKi (human δ opioid receptor) of 6.31. For the same molecule, the “In vitro functional agonism” value (human μ opioid receptor [4]) was “Yes” and the “Clinical Observations” value (mice) was “None”.

For O=C1CC[C@@]2(O)[C@H]3Cc4ccc(C(=O)NCCc5ccc(-c6c[nH]c(=O)[nH]c6=O)cc5)c(O)c4[C@@]2(CCN3CCc2ccccc2)C1 [Compound 2, N-{2-[4-(2,4-Dioxo-1,2,3,4-tetrahydropyrimidin-5-yl)phenyl]ethyl}-4,14-dihydroxy-6-oxo-17-(2-phenylethyl)morphinan-3-carboxamide], the “In vitro functional agonism” value (human μ opioid receptor [4]; [7]) was “Yes” and the “Clinical Observations” value (mice) was “None”.

CN1CC[C@]23CC(=O)CC[C@@]2(O)[C@H]1Cc1ccc(C(=O)NCCc2ccc(-c4ccc(=O)[nH]c4)cc2)c(O)c13 [Compound 3] showed a pKi (human μ opioid receptor [3]; [8]) of 9.20, a pKi (human κ opioid receptor; [6]) of 6.74 and a pKi (human δ opioid receptor) of 7.77. For the same molecule, the “In vitro functional agonism” value (human μ opioid receptor [4]; [7]) was “Yes” and the “Clinical Observations” value (mice) was “None”.

In the case of CN1CC[C@]23CC(=O)CC[C@@]2(O)[C@H]1Cc1ccc(C(=O)NCCc2ccc(-c4cnc(O)nc4O)cc2)c(O)c13 [Compound 4], the pKi (human μ opioid receptor [3]; [8]) was 8.89, the pKi (human κ opioid receptor) was 6.72 and the Ki (human δ opioid receptor) was greater than 1 µM. The “In vitro functional agonism” value (human μ opioid receptor [4]; [7]) was “Yes”, the ED50 (formalin-induced events; subcutaneous) was 3.62 mg/kg and the “Early Phase versus Late Phase effect in formalin test” value (formalin-induced events; subcutaneous) was “more robust effect of Compound 4 in the Late Phase effects than the Early Phase”. For the same molecule, the “Effect on formalin-induced events” value (formalin-induced events; subcutaneous, dose response) was “dose-dependent reversal of formalin-induced events”, the ED50 ([5]; Mus musculus, ip) was 0.7 mg/kg and the “Effect on acetic acid induced writhing” value [5] was “blocked acetic acid induced writhing in a dose-dependent manner”. The “Analgesic effect with concurrent intra-plantar 75 ug naloxone methiodide” value [1] was “significantly inhibited”, the “Reversal of CFA-induced weight bearing deficits” value [1] was “dose-dependent reversal of CFA-induced weight bearing deficits; also recorded: comparable to that seen with Morphine” and the “Hot plate efficacy at the highest dose tested” value ([2]; SC 100 mg/kg) was “sub-maximal efficacy”. For the same molecule, the “Hot plate activity compared with morphine” value ([2]; SC 10, 30 and 100 mg/kg) was “significantly less active than morphine” and the “Clinical Observations” value (mice) was “None”.

For C=C1CC[C@@]2(O)[C@H]3Cc4ccc(C(=O)NCCc5ccc(-c6c[nH]c(=O)[nH]c6=O)cc5)c(O)c4[C@@]2(CCN3C)C1 [Compound 6], the pKi (human μ opioid receptor [3]; [8]) was 8.46, the pKi (human κ opioid receptor; [6]) was 6.00 and the pKi (human δ opioid receptor) was 7.01. For the same molecule, the “In vitro functional agonism” value (human μ opioid receptor [4]; [7]) was “Yes” and the “Clinical Observations” value (mice) was “None”.

With CO[C@@]12CCC(=O)C[C@@]13CCN(C)[C@@H]2Cc1ccc(C(=O)NCCc2ccc(-c4c[nH]c(=O)[nH]c4=O)cc2)c(O)c13 [Compound 7] the pKi (human μ opioid receptor [3]) was 9.28, the pKi (human κ opioid receptor; [6]) was 6.07 and the pKi (human δ opioid receptor) was 7.38. The “In vitro functional agonism” value (human μ opioid receptor [4]) was “Yes” and the “Clinical Observations” value (mice) was “None”.

For CN1CC[C@]23CC(=O)CC[C@@]2(O)[C@H]1Cc1ccc(C(=O)NCCc2ccc(-c4cn[nH]c4)cc2)c(O)c13 [Compound 8], the pKi (human μ opioid receptor [3]; [8]) was 9.82, the pKi (human κ opioid receptor; [6]) was 7.72 and the pKi (human δ opioid receptor) was 8.68. For the same molecule, the “In vitro functional agonism” value (human μ opioid receptor [4]; [7]) was “Yes” and the “Clinical Observations” value (mice) was “None”.

For CN1CC[C@]23CC(=O)CCC2[C@H]1Cc1ccc(C(=O)NCCc2nc4ccccc4[nH]2)c(O)c13 (stereo partly shown) [Compound 9], the pKi (human μ opioid receptor [3]; [8]) was 8.77, the pKi (human κ opioid receptor; [6]) was 6.40 and the pKi (human δ opioid receptor) was 6.55. For the same molecule, the “In vitro functional agonism” value (human μ opioid receptor [4]; [7]) was “Yes” and the “Clinical Observations” value (mice) was “None”.

CN1CC[C@]23CC(=O)CC[C@@]2(O)[C@H]1Cc1ccc(C(=O)NCCc2ccc(-c4cc[nH]c(=O)c4)cc2)c(O)c13 [Compound 10, 4,14-dihydroxy-N-{2-[4-(2-hydroxypyridin-4-yl)phenyl]ethyl}-17-methyl-6-oxomorphinan-3-carboxamide] showed a pKi (human μ opioid receptor [3]; [8]) of 9.37, a pKi (human κ opioid receptor) of 6.85 and a pKi (human δ opioid receptor) of 8.00. For the same molecule, the “In vitro functional agonism” value (human μ opioid receptor [4]; [7]) was “Yes” and the “Clinical Observations” value (mice) was “None”.

In the case of CN1CC[C@]23CC(=O)CC[C@@]2(O)[C@H]1Cc1ccc(C(=O)NCCc2ccc(-c4cnc(=O)[nH]c4)cc2)c(O)c13 [Compound 11, 4,14-dihydroxy-17-methyl-6-oxo-N-{2-[4-(2-oxo-1,2-dihydropyrimidin-5-yl)phenyl]ethyl}morphinan-3-carboxamide maleate salt], the pKi (human μ opioid receptor [3]; [8]) was 8.80, the Ki (human δ opioid receptor) was greater than 1 µM and the “In vitro functional agonism” value (human μ opioid receptor [4]; [7]) was “Yes”. For the same molecule, the “Clinical Observations” value (mice) was “None”.

In the case of “(4bS,9R)—N-(4-(2,4-dioxo-1,2,3,4-tetrahydropyrimidin-5-yl)phenethyl)-4-hydroxy-11-methyl-6-oxo-6,7,8,8a,9,10-hexahydro-5H-9,4b-(epiminoethano)phenanthrene-3-carboxamide [Compound 5]”, the pKi (human μ opioid receptor [3]; [8]) was 8.77, the pKi (human κ opioid receptor) was 6.17 and the pKi (human δ opioid receptor) was 7.29. For the same molecule, the “In vitro functional agonism” value (human μ opioid receptor [4]; [7]) was “Yes” and the “Clinical Observations” value (mice) was “None”.
